Measured values as given in ChEMBL document CHEMBL4038282 (Eur J Med Chem, 2017).
Converted amounts (≈) assume the structure as drawn. Each block holds one compound with its values, some of them ahead of it. The source made the active and inactive calls. No cut-off for these calls is given here.

Legend:
MDA-MB-231 [1] = experiment: Antiproliferative activity against human MDA-MB-231 cells up to 72 hrs by MTT assay; assay type: functional, cell-based; conditions: MDA-MB-231, 72 h
MDA-MB-231 [2] = experiment: Potency index, ratio of curcumin IC50 to compound IC50 for human MDA-MB-231 cells; assay type: functional
HCT-116 = experiment: Antiproliferative activity against human HCT116 cells up to 72 hrs by MTT assay; assay type: functional, cell-based; conditions: HCT-116, 72 h
PC-3 = experiment: Antiproliferative activity against human PC3 cells up to 72 hrs by MTT assay; assay type: functional, cell-based; conditions: PC-3, 72 h
[3] = Stability of the compound in culture media measured after 72 hrs in presence of curcumin by HPLC method
T47D [4] = experiment: Antiproliferative activity against ER/PR positive human T47D cells after 24 hrs by MTT assay; assay type: functional, cell-based
MCF7 [5] = experiment: Antiproliferative activity against ER/PR positive human MCF7 cells after 24 hrs by MTT assay; assay type: functional, cell-based; conditions: MCF7, 24 h
MDA-MB-453 [6] = experiment: Antiproliferative activity against HER2 positive human MDA-MB-453 cells after 24 hrs by MTT assay; assay type: functional, cell-based; conditions: MDA-MB-453, 24 h
MDA-MB-157 [7] = experiment: Antiproliferative activity against human MDA-MB-157 cells after 24 hrs by MTT assay; assay type: functional, cell-based; conditions: MDA-MB-157, 24 h
BT-474 [8] = experiment: Antiproliferative activity against HER2 positive human BT474 cells after 24 hrs by MTT assay; assay type: functional, cell-based; conditions: BT-474, 24 h
SK-BR-3 [9] = experiment: Antiproliferative activity against HER2 positive human SKBR3 cells after 24 hrs by MTT assay; assay type: functional, cell-based; conditions: SK-BR-3, 24 h
MDA-MB-468 [10] = experiment: Antiproliferative activity against human MDA-MB-468 cells after 24 hrs by MTT assay; assay type: functional, cell-based; conditions: MDA-MB-468, 24 h
Hs-578T [11] = experiment: Antiproliferative activity against human Hs578T cells after 24 hrs by MTT assay; assay type: functional, cell-based
MDA-MB-468 [12] = experiment: Antiproliferative activity against doxorubicin-resistant human MDA-MB-468 cells after 24 hrs by MTT assay; assay type: functional, cell-based; conditions: MDA-MB-468, 24 h
T47D [13] = experiment: Potency index, ratio of curcumin IC50 to compound IC50 for ER/PR positive human T47D cells; assay type: functional
MCF7 [14] = experiment: Potency index, ratio of curcumin IC50 to compound IC50 for ER/PR positive human MCF7 cells; assay type: functional
MDA-MB-453 [15] = experiment: Potency index, ratio of curcumin IC50 to compound IC50 for HER2 positive human MDA-MB-453 cells; assay type: functional
BT-474 [16] = experiment: Potency index, ratio of curcumin IC50 to compound IC50 for HER2 positive human BT474 cells; assay type: functional
SK-BR-3 [17] = experiment: Potency index, ratio of curcumin IC50 to compound IC50 for HER2 positive human SKBR3 cells; assay type: functional
MDA-MB-468 [18] = experiment: Potency index, ratio of curcumin IC50 to compound IC50 for human MDA-MB-468 cells; assay type: functional
MDA-MB-157 [19] = experiment: Potency index, ratio of curcumin IC50 to compound IC50 for human MDA-MB-157 cells; assay type: functional
Hs-578T [20] = experiment: Potency index, ratio of curcumin IC50 to compound IC50 for human Hs578T cells; assay type: functional
MDA-MB-468 [21] = experiment: Potency index, ratio of curcumin IC50 to compound IC50 for doxorubicin-resistant human MDA-MB-468 cells; assay type: functional
MDA-MB-231 [22] = experiment: Antiproliferative activity against human MDA-MB-231 cells at 1 to 3 uM in presence of doxorubicin by MTT assay; assay type: functional, cell-based
Mus musculus [23] = experiment: Toxicity in nu/nu mouse assessed as changes in body weight at 5 to 50 mg/kg, po administered once daily for 32 days measured every 4 days during compound dosing; assay type: organism-based; conditions: in vivo
MDA-MB-231 [24] = experiment: Anti-tumor activity against human MDA-MB-231 cells xenografted in nu/nu mouse assessed as reduction in tumor size at 50 mg/kg, po administered once daily for 32 days measured every 4 days during compound dosing relative to control; assay type: functional; set-up: scale not given: the % may be the effect or the level left
Mus musculus [25] = experiment: Toxicity in nu/nu mouse assessed as effect on food consumption at 5 to 50 mg/kg, po administered once daily for 32 days measured during compound dosing; assay type: organism-based; conditions: in vivo, 768 h
Mus musculus [26] = experiment: Toxicity in nu/nu mouse assessed as behavioral changes at 5 to 50 mg/kg, po administered once daily for 32 days measured during compound dosing; assay type: organism-based; conditions: in vivo, 768 h
Mus musculus [27] = experiment: Toxicity in nu/nu mouse assessed as change in total protein level at 5 to 50 mg/kg, po administered once daily for 32 days measured post last dose; assay type: organism-based; conditions: in vivo, 768 h
Mus musculus [28] = experiment: Toxicity in nu/nu mouse assessed as change in serum albumin level at 5 to 50 mg/kg, po administered once daily for 32 days measured post last dose; assay type: organism-based; conditions: in vivo, 768 h
Mus musculus [29] = experiment: Toxicity in nu/nu mouse assessed as change in serum creatinine level at 5 to 50 mg/kg, po administered once daily for 32 days measured post last dose; assay type: organism-based; conditions: in vivo, 768 h
Mus musculus [30] = experiment: Toxicity in nu/nu mouse assessed as change in blood urea nitrogen level at 5 to 50 mg/kg, po administered once daily for 32 days measured post last dose; assay type: organism-based; conditions: in vivo, 768 h
Mus musculus [31] = experiment: Toxicity in nu/nu mouse assessed as change in blood glucose level at 5 to 50 mg/kg, po administered once daily for 32 days measured post last dose; assay type: organism-based; conditions: in vivo, 768 h
Mus musculus [32] = experiment: Toxicity in nu/nu mouse assessed as change in blood uric acid level at 5 to 50 mg/kg, po administered once daily for 32 days measured post last dose; assay type: organism-based; conditions: in vivo, 768 h
MDA-MB-231 [33] = experiment: Anti-tumor activity against human MDA-MB-231 cells xenografted in nu/nu mouse assessed as reduction in tumor weight at 50 mg/kg, po administered once daily for 32 days; assay type: functional; set-up: scale not given: the % may be the effect or the level left
MDA-MB-231 [34] = experiment: Anti-tumor activity against human MDA-MB-231 cells xenografted in nu/nu mouse assessed as reduction in tumor weight at 50 mg/kg, po administered once daily for 32 days in presence of doxorubicin; assay type: functional; set-up: scale not given: the % may be the effect or the level left
Mus musculus [35] = experiment: Toxicity in nu/nu mouse assessed as behavioral changes at 50 mg/kg, po administered once daily for 32 days in presence of doxorubicin; assay type: organism-based; conditions: in vivo, 768 h
Mus musculus [36] = experiment: Toxicity in nu/nu mouse assessed as change in body weight at 50 mg/kg, po administered once daily for 32 days in presence of doxorubicin; assay type: organism-based; conditions: in vivo, 768 h
Mus musculus [37] = experiment: Toxicity in nu/nu mouse assessed as hematological changes at 50 mg/kg, po administered once daily for 32 days in presence of doxorubicin; assay type: organism-based; conditions: in vivo, 768 h
MDA-MB-231 [38] = experiment: Cell cycle arrest in human MDA-MB-231 cells assessed as increase in G2/M population by propidium iodide staining based flow cytometry; assay type: functional
[39] = Solubility of the compound in water after 24 hrs by shake-flask method; assay type: physicochemical
MDA-MB-231 [40] = experiment: Induction of autophagy in human MDA-MB-231 cells; assay type: functional, cell-based
MDA-MB-231 [41] = experiment: Induction of apoptosis in human MDA-MB-231 cells; assay type: functional, cell-based
MDA-MB-231 [42] = experiment: Effect on heme oxygenase-1 expression in human MDA-MB-231 cells by microarray analysis; assay type: functional, cell-based
Mus musculus [43] = experiment: Acute-toxicity in nu/nu mouse assessed as changes in body weight at 500 mg/kg, po administered once daily for 5 days measured for 21 days; assay type: organism-based; conditions: in vivo, 504 h
Mus musculus [44] = experiment: Acute-toxicity in nu/nu mouse assessed as behavioral changes at 500 mg/kg, po administered once daily for 5 days measured for 21 days; assay type: organism-based; conditions: in vivo, 504 h
[45] = Solubility of the compound in ethanol after 24 hrs by shake-flask method; assay type: physicochemical; conditions: ethanol
MDA-MB-231 [46] = experiment: Potency index, ratio of test compound to curcumin for anti-tumor activity against human MDA-MB-231 cells xenografted in nu/nu mouse; assay type: functional
MDA-MB-231 [47] = experiment: Anti-tumor activity against human MDA-MB-231 cells xenografted in nu/nu mouse assessed as reduction in tumor weight at 1 mg/kg, ip administered once daily for 32 days; assay type: functional; set-up: scale not given: the % may be the effect or the level left
Mus musculus [48] = experiment: Toxicity in nu/nu mouse assessed as behavioral changes at 1 mg/kg, ip administered once daily for 32 days; assay type: organism-based; conditions: in vivo, 768 h
Mus musculus [49] = experiment: Toxicity in nu/nu mouse assessed as change in body weight at 1 mg/kg, ip administered once daily for 32 days; assay type: organism-based; conditions: in vivo, 768 h
Mus musculus [50] = experiment: Toxicity in nu/nu mouse assessed as hematological changes at 1 mg/kg, ip administered once daily for 32 days; assay type: organism-based; conditions: in vivo, 768 h

- IC50 (MDA-MB-231 [1]): 3.85 µM
- IC50 (HCT-116): 3.64 µM
- IC50 (PC-3): 7.03 µM
SMILES: CCC(CO)(CO)C(=O)Oc1cc(/C=C/C(=O)/C=C(O)/C=C/c2ccc(OC)c(O)c2)ccc1OC
- Ratio IC50 (MDA-MB-231 [2]): 2.4 - 12.2

SMILES: COc1cc(/C=C/C(=O)/C=C(O)/C=C/c2ccc(OC(=O)C(C)(CO)CO)c(OC)c2)ccc1OC(=O)C(C)(CO)CO
- IC50 (MDA-MB-231 [1]): 2.67 µM
- Ratio IC50 (MDA-MB-231 [2]): 6.1
- Stability [3]: Stable
- IC50 (HCT-116): 3.91 µM
- IC50 (PC-3): 3.9 µM
- IC50 (T47D [4]): 19.3 µM
- IC50 (MCF7 [5]): 6.13 µM
- IC50 (MDA-MB-453 [6]): 3.97 µM
- IC50 (MDA-MB-157 [7]): 9.23 µM
- IC50 (BT-474 [8]): 6.15 µM
- IC50 (SK-BR-3 [9]): 6.39 µM
- IC50 (MDA-MB-468 [10]): 6.13 µM
- IC50 (Hs-578T [11]): 7.96 µM
- IC50 (MDA-MB-468 [12]): 6.52 µM
- Ratio IC50 (T47D [13]): 2.5 - 8.6
- Ratio IC50 (MCF7 [14]): 2.5 - 8.6
- Ratio IC50 (MDA-MB-453 [15]): 2.5 - 8.6
- Ratio IC50 (BT-474 [16]): 2.5 - 8.6
- Ratio IC50 (SK-BR-3 [17]): 2.5 - 8.6
- Ratio IC50 (MDA-MB-468 [18]): 3.4 - 7.4
- Ratio IC50 (MDA-MB-157 [19]): 3.4 - 7.4
- Ratio IC50 (Hs-578T [20]): 3.4 - 7.4
- Ratio IC50 (MDA-MB-468 [21]): 10
- Activity (MDA-MB-231 [22]): Active
- Activity (Mus musculus [23]): Non-Toxic
- Activity (MDA-MB-231 [24]): 60%
- Activity (Mus musculus [25]): Non-Toxic
- Activity (Mus musculus [26]): Non-Toxic
- Activity (Mus musculus [27]): Non-Toxic
- Activity (Mus musculus [28]): Non-Toxic
- Activity (Mus musculus [29]): Non-Toxic
- Activity (Mus musculus [30]): Non-Toxic
- Activity (Mus musculus [31]): Non-Toxic
- Activity (Mus musculus [32]): Non-Toxic
- Activity (MDA-MB-231 [33]): 60%
- Activity (MDA-MB-231 [34]): 80%
- Activity (Mus musculus [35]): Non-Toxic
- Activity (Mus musculus [36]): Non-Toxic
- Activity (Mus musculus [37]): Non-Toxic
- Activity (MDA-MB-231 [38]): Active
- solubility thermodynamic at 24 h [39]: 21.1 µg/mL (≈ 0.0351 mM)
- Activity (MDA-MB-231 [40]): Active
- Activity (MDA-MB-231 [41]): Active
- Activity (MDA-MB-231 [42]): Active
- Activity (Mus musculus [43]): Non-Toxic
- Activity (Mus musculus [44]): Non-Toxic
- solubility thermodynamic at 24 h [45]: 13800 µg/mL (≈ 23.1 mM)
- Ratio (MDA-MB-231 [46]): 10

SMILES: COc1cccc2c1C(=O)c1c(O)c3c(c(O)c1C2=O)C[C@@](O)(C(=O)CO)C[C@@H]3O[C@H]1C[C@H](N)[C@H](O)[C@H](C)O1 [DOXORUBICIN]
- Activity (MDA-MB-231 [47]): 60%
- Activity (Mus musculus [48]): Non-Toxic
- Activity (Mus musculus [49]): Non-Toxic
- Activity (Mus musculus [50]): Non-Toxic

- IC50 (MDA-MB-231 [1]): 6.74 µM
- IC50 (HCT-116): 4.1 µM
- IC50 (PC-3): 5.59 µM
SMILES: CC(CO)(CO)C(=O)Oc1ccc(/C=C/C(=O)/C=C(O)/C=C/c2ccc(OC(=O)C(C)(CO)CO)cc2)cc1
- Ratio IC50 (MDA-MB-231 [2]): 2.4 - 12.2

- IC50 (MDA-MB-231 [1]): 2.7 µM
SMILES: COc1ccc(/C=C/C(=O)C(C)(C)C(=O)/C=C/c2ccc(OC)c(OC(=O)C(C)(CO)CO)c2)cc1OC(=O)C(C)(CO)CO
- Ratio IC50 (MDA-MB-231 [2]): 2.4 - 12.2
